Laboratory results taken from PMC9004391, “Cytochrome P450 Monooxygenase/Cytochrome P450 Reductase Bi-Enzymatic System Isolated From Ilex asprella for Regio-Specific Oxidation of Pentacyclic Triterpenoids” (Frontiers in Plant Science, 2022).

Legend:
IaCPR = system: T1, IaCPR; assay: reductase activity by absorbance, microplate reader; type: biochemical, Ilex asprella; conditions: electron acceptor for this constant, pH and temperature not printed in main text
T1 construct: full ORF 2,133 bp, 710 aa; pET32a (vector fusion tag), E. coli Transetta (DE3), Ni-NTA

IaAO4 = target: T2, IaAO4 (Ilex asprella, UniProt A0A976SHZ5); assay: yeast metabolite analysis by GC-MS; type: cell-based; conditions: S. cerevisiae WAT11tfAX co-expressing IaAO1
T2 construct: 513 aa ORF (1,539 bp); pESC-URA in S. cerevisiae WAT11tfAX co-expressing IaAO1
T2 sequence (A0A976SHZ5 1-512): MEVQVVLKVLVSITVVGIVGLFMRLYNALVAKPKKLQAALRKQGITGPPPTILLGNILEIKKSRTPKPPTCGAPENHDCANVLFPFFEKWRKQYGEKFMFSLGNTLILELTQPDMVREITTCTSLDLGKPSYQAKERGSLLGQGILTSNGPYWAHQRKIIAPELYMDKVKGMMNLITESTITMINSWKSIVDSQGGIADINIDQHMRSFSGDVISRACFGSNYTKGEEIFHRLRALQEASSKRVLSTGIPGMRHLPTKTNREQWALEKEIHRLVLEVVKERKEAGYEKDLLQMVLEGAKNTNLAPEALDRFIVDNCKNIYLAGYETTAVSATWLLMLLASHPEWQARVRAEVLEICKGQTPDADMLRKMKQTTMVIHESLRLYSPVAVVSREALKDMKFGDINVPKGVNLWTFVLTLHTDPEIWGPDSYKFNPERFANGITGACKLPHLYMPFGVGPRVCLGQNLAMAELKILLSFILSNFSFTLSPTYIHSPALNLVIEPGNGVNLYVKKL

IaAO5 = target: T3, IaAO5 (Ilex asprella, UniProt A0A976SHZ3); assay: yeast metabolite analysis by GC-MS; type: cell-based; conditions: S. cerevisiae WAT11tfA co-expressing IaAS2; C-24 oxidation to α-boswellic acid; not seen in strain WAT11tfAX
T3 construct: 515 aa ORF (1,545 bp); pESC-TRP in S. cerevisiae WAT11tfA co-expressing IaAS2
T3 sequence (A0A976SHZ3 1-514): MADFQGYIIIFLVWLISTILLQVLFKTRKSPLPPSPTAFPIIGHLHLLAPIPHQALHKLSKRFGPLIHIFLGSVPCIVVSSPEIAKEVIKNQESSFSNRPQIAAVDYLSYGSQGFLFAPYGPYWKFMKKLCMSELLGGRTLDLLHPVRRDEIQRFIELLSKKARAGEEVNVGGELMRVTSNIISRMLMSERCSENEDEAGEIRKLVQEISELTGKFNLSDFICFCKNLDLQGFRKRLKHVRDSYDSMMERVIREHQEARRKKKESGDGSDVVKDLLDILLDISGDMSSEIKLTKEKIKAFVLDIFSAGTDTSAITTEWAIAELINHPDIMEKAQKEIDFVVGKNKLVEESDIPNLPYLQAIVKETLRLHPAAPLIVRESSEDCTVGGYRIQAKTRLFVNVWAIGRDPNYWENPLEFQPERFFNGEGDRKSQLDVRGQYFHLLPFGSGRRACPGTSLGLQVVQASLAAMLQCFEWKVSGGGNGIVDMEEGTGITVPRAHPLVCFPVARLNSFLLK

Structure (SMILES): NC(=O)C1=CN([C@@H]2O[C@H](COP(=O)(O)OP(=O)(O)OC[C@H]3O[C@@H](n4cnc5c(N)ncnc54)[C@H](OP(=O)(O)O)[C@@H]3O)[C@@H](O)[C@H]2O)C=CC1 [NADPH]
- Km (IaCPR): 7.69 µM

Structure (SMILES): CC1(C)CC[C@]2(C(=O)O)CC[C@]3(C)C(=CC[C@@H]4[C@@]5(C)CC[C@H](O)C(C)(C)[C@@H]5CC[C@]43C)[C@@H]2C1 [oleanolic acid]
- yeast metabolite analysis by GC-MS (IaAO4; C-23 oxidation to hederagenin and gypsogenic acid): catalyzing the oxidation of both OA and UA at the C-23 position

Structure (SMILES): C[C@H]1[C@H](C)CC[C@]2(C(=O)O)CC[C@]3(C)C(=CC[C@@H]4[C@@]5(C)CC[C@H](O)C(C)(C)[C@@H]5CC[C@]43C)[C@H]12 [ursolic acid]
- yeast metabolite analysis by GC-MS (IaAO4; C-23 oxidation, products 23-hydroxyl- and 23-carboxyl-ursolic acid tentative): catalyzing the oxidation of both OA and UA at the C-23 position

Structure (SMILES): CC1(C)CC[C@]2(C)CC[C@]3(C)C(=CC[C@@H]4[C@@]5(C)CC[C@H](O)C(C)(C)[C@@H]5CC[C@]43C)[C@@H]2C1 [β-amyrin]
- yeast metabolite analysis by GC-MS (IaAO5): catalyzes oxidation at the C-24 position of β-amyrin to yield α-Boswellic acid
